# Measurements as given in patent publication US20230321199A1, “USES OF PTHrP ANALOGUE IN REDUCING FRACTURE RISK” (Radius Health, Inc., priority 2015, published 2023).
# Like-named read-outs stand apart in the source and are kept apart here. Marks after values point to notes of the source that are not given here.
# How the values were obtained:
# [1] = test system: postmenopausal women with osteoporosis; conditions: in vivo
# Method: (§2) Safety evaluations performed in the ACTIVE trial included physical examinations, vital signs, 12-lead electrocardiograms, or ECGs, clinical laboratory tests and monitoring, and recording of adverse events. Specific safety assessments included pre-dose and post-dose (four hours) determination of serum calcium, determination of creatinine clearance, post-dose ECG assessments at selected visits, and assessments of postural hypotension (60 minutes post-dose) at selected clinic visits.
# (§3) The ACTIVE trial also evaluated several potential safety measures, including blood calcium levels, orthostatic hypotension, nausea, dizziness, and injection-site reactions.
# [2] = test system: postmenopausal women with osteoporosis; conditions: in vivo; remark: listed apart in the source
# [3] = test system: postmenopausal women with osteoporosis; test: ACTIVE trial: adverse events; conditions: 18-month ACTIVE trial
# Method: as §2, §3
# [4] = test system: postmenopausal women with osteoporosis; test: ACTIVE phase 3 trial: fracture rates and fracture risk over 18 months; format: in vivo, human
# Method: The ACTIVE phase 3 fracture prevention trial was conducted for abaloparatide in postmenopausal women with osteoporosis who were otherwise healthy. The enrolled subjects were treated with 80 micrograms (μg) of abaloparatide, a matching placebo, or the approved daily dose of 20 μg of teriparatide for 18 months. The ACTIVE trial evaluated fracture rates, fracture risks, BMD, and bone turnover biomarkers (e.g., CTX and P1NP) in all patient groups.
# Fracture risk reduction and hazard ratio (HR) were derived from Kaplan-Meier (KM) curve.
# The ACTIVE pivotal Phase 3 fracture prevention trial for the PTHrP analogue abaloparatide, Study BA058-05-003 (see ClinicalTrials.gov), was a randomized, double-blind, placebo-controlled trial in postmenopausal osteoporotic women randomized to receive daily doses of one of the following for 18 months: 80 micrograms (μg) of abaloparatide; a matching placebo; or the approved daily dose of 20 μg of teriparatide. Treatment with abaloparatide at a daily dose of 80 μg or placebo remained blinded to all parties throughout the study. Teriparatide used was a proprietary prefilled drug and device combination that could not be repackaged. Therefore, its identity could not be blinded to treating physicians and patients once use began. Study medication was self-administered daily by subcutaneous injection for a maximum of 18 months. All enrolled patients also received calcium and vitamin D supplementation from the time of enrollment until the end of the treatment period. It was recommended to patients that they also continue these supplements through the one-month follow-up period.
# The study enrolled otherwise healthy ambulatory women aged 49 to 86 (inclusive) who had been postmenopausal for at least five years, met the study entry criteria, and had provided written informed consent. […] All patients were to be in good general health as determined by medical history, physical examination (including vital signs), and clinical laboratory testing. This study population contained a patient population reflective of the type of severe osteoporosis patients that specialists would be expected to treat in their practices.
# (§1) As set forth in the ACTIVE protocol, the primary efficacy endpoint was the number of patients treated with abaloparatide with incident vertebral fractures at the end of treatment as compared to those who received placebo. The pre-specified secondary efficacy parameters included, among other endpoints, reduction in the incidence/risk of non-vertebral fractures; changes in BMD of the spine, hip, and femoral neck from baseline to end of treatment as assessed by DXA and as compared to teriparatide; and the number of hypercalcemic events in abaloparatide treated patients when compared to teriparatide at end of treatment.
# [5] = test system: postmenopausal women with osteoporosis; test: ACTIVE trial: BMD of lumbar spine, total hip, femoral neck by DXA; format: in vivo, human
# Method: BMD and bone turnover biomarkers (CTX and P1NP) were also evaluated in all patient groups to compare the effects of abaloparatide versus teriparatide.
# as §1
# Comparative analyses of abaloparatide versus teriparatide were completed on the following BMD secondary endpoints using a Mixed-Effect Model for Repeated Measures (MMRM) method, shown in Table 4 below:
# Comparative analyses of the PTHrP analogues abaloparatide and teriparatide were completed on the following BMD secondary endpoints using an ANCOVA approach, shown in Table 5 below: […]
# [6] = test system: postmenopausal women with osteoporosis; test: Phase 2 dose-finding trial: 24-week BMD by DXA; format: in vivo, human; conditions: 24 weeks; 20 μg daily SC
# Excerpt: Healthy postmenopausal women between the ages of 55 to 85 (based on a 5-year history of amenorrhea and an elevated serum level of FSH) were enrolled in the study if they met one of the following the following definitions of osteoporosis: • 1) DXA-derived BMD T-score≤−2.5 at the lumbar spine or femoral neck or total hip. • 2) DXA-derived BMD T-score ≤−2.0 with a history of a prior low trauma forearm, humerus, vertebral, sacral, pelvic, hip, femoral, or tibial fracture within the past five years. • 3) DXA-derived BMD T-score ≤−2.0 with an additional osteoporosis risk factor such as age >65 years or strong maternal history of osteoporosis (defined as a fracture related to osteoporosis or osteoporosis itself determined by BMD criteria).
# Dual X-ray absorptiometry: DXA scans were obtained at each local site and then sent to a central imaging reader (BioClinica Inc. Newton, PA) where they underwent a quality control review and then analyzed according to each manufacturers guidelines. Scans performed during the treatment period on the same instrument used for the baseline scan were acquired. Each study site performed Instrument Quality Control over time (instrument standardization and phantom calibration) that was reviewed by the central reader.
# [7] = test system: postmenopausal women with osteoporosis; test: Phase 2 trial: safety, serum calcium, antibody formation; conditions: 24 weeks; 20 μg daily SC
# [8] = test system: postmenopausal women with osteoporosis; test: Phase 2 trial 24-week extension (48 weeks): BMD and tolerability; conditions: 20 μg daily SC
smiles,measurement,setting,value
"CC[C@H](C)[C@H](NC(=O)[C@H](CO)NC(=O)[C@H](CCCCN)NC(=O)CNC(=O)[C@H](CCCCN)NC(=O)[C@H](CC(=O)O)NC(=O)[C@H](Cc1cnc[nH]1)NC(=O)[C@H](CC(C)C)NC(=O)[C@H](CC(C)C)NC(=O)[C@H](CCC(N)=O)NC(=O)[C@H](Cc1cnc[nH]1)NC(=O)[C@H](CCC(=O)O)NC(=O)[C@H](CO)NC(=O)[C@@H](NC(=O)[C@H](C)N)C(C)C)C(=O)N[C@@H](CCC(N)=O)C(=O)N[C@@H](CC(=O)O)C(=O)N[C@@H](CC(C)C)C(=O)N[C@@H](CCCNC(=N)N)C(=O)N[C@@H](CCCNC(=N)N)C(=O)N[C@@H](CCCNC(=N)N)C(=O)N[C@@H](CCC(=O)O)C(=O)N[C@@H](CC(C)C)C(=O)N[C@@H](CC(C)C)C(=O)N[C@@H](CCC(=O)O)C(=O)N[C@@H](CCCCN)C(=O)N[C@@H](CC(C)C)C(=O)N[C@@H](CC(C)C)C(=O)NC(C)(C)C(=O)N[C@@H](CCCCN)C(=O)N[C@@H](CC(C)C)C(=O)N[C@@H](Cc1cnc[nH]1)C(=O)N[C@H](C(=O)N[C@@H](C)C(N)=O)[C@@H](C)O [abaloparatide, [Glu^22,25, Leu^23,28,31, Aib^29, Lys^26,30]hpTHrP(1-34)NH2]",AE: Arthralgia,[1],8.6%
same,AE: Back Pain,[1],8.5%
same,AE: Constipation,[1],4.5%
same,AE: Dizziness,[1],10.0%‡
same,AE: Headache,[1],7.5%
same,AE: Hypercalcemia (serum albumin-corrected calcium value ≥ 10.7 mg/dL),[1],3.41%^†
same,AE: Hypertension,[1],7.2%
same,AE: Nasopharyngitis,[1],5.8%
same,AE: Nausea,[1],8.3%‡
same,AE: Pain in extremity,[1],4.9%
same,AE: Palpitations,[1],5.1%‡
same,AE: Upper respiratory tract infection,[1],8.3%
same,AE: Urinary tract infection,[1],5.2%
same,anti-abaloparatide antibody titer in positive patients,[2],≤ 1:20
same,AE: Influenza,[3],6.3%
"CC[C@H](C)[C@H](NC(=O)[C@H](CCC(=O)O)NC(=O)[C@H](CO)NC(=O)[C@@H](NC(=O)[C@@H](N)CO)C(C)C)C(=O)N[C@@H](CCC(N)=O)C(=O)N[C@@H](CC(C)C)C(=O)N[C@@H](CCSC)C(=O)N[C@@H](Cc1cnc[nH]1)C(=O)N[C@@H](CC(N)=O)C(=O)N[C@@H](CC(C)C)C(=O)NCC(=O)N[C@@H](CCCCN)C(=O)N[C@@H](Cc1cnc[nH]1)C(=O)N[C@@H](CC(C)C)C(=O)N[C@@H](CC(N)=O)C(=O)N[C@@H](CO)C(=O)N[C@@H](CCSC)C(=O)N[C@@H](CCC(=O)O)C(=O)N[C@@H](CCCN=C(N)N)C(=O)N[C@H](C(=O)N[C@@H](CCC(=O)O)C(=O)N[C@@H](Cc1c[nH]c2ccccc12)C(=O)N[C@@H](CC(C)C)C(=O)N[C@@H](CCCN=C(N)N)C(=O)N[C@@H](CCCCN)C(=O)N[C@@H](CCCCN)C(=O)N[C@@H](CC(C)C)C(=O)N[C@@H](CCC(N)=O)C(=O)N[C@@H](CC(=O)O)C(=O)N[C@H](C(=O)N[C@@H](Cc1cnc[nH]1)C(=O)N[C@@H](CC(N)=O)C(=O)N[C@@H](Cc1ccccc1)C(=O)O)C(C)C)C(C)C [teriparatide, hPTH(1-34)]","hazard ratio, incident clinical fractures, as compared to placebo",[4],0.71
same,"hazard ratio, non-vertebral fractures, as compared to placebo",[4],0.72
same,"fracture rate, non-vertebral fractures (rate given with hazard ratio)",[4]; placebo group 4.7%,3.3%
same,"fracture rate, incident clinical fractures (rate given with hazard ratio)",[4]; placebo group 8.3%,4.8%
same,"Mean Percent Change In BMD From Baseline (ANCOVA), Femoral Neck",[5]; 6 mo,0.80%*
same,"Mean Percent Change in BMD From Baseline (MMRM), Femoral Neck",[5]; 6 mo,0.87%*
same,"Mean Percent Change In BMD From Baseline (ANCOVA), Lumbar Spine",[5]; 12 mo,7.40%*
same,subjects with BMD increases of >3% at all three sites,[5]; 12 months,19.8%
same,subjects with BMD increases of >3% at all three sites,[5]; 18 months,32.0%
same,"subjects with increased BMD of >3% at all three sites (lumbar spine, total hip, femoral neck)",[5]; month 6,6.5%
same,femoral neck BMD increase (±SD),[6],1.1±4.6%
same,total hip BMD increase (±SD),[6],0.5±3.9%
same,AE: Arthralgia,[3],8.6%
same,AE: Back Pain,[3],7.2%‡
same,AE: Constipation,[3],4.2%
same,AE: Dizziness,[3],7.3%
same,AE: Headache,[3],6.2%
same,AE: Hypercalciuria,[3],12.5%‡
same,AE: Hypertension,[3],5.0%
same,AE: Influenza,[3],4.2%
same,AE: Nasopharyngitis,[3],6.5%
same,AE: Nausea,[3],5.1%‡
same,AE: Pain in extremity,[3],5.1%
same,AE: Palpitations,[3],1.6%‡
same,AE: Upper respiratory tract infection,[3],8.9%
same,AE: Urinary tract infection,[3],5.0%
same,incidence of dizziness,[7],4%
same,femoral neck BMD increase,[8]; 48 weeks,2.2%
same,lumbar spine BMD increase,[8]; 48 weeks,8.6%
same,total hip BMD increase,[8]; 48 weeks,1.3%
same,treatment-related TEAEs,[8]; extension study,21%
